In a melting point compilation (Tetko et al.; mined from patent text by program, amines drawn as free bases though some values may be those of a salt) one finds melting point data, which are given here for 91 molecules.

Regarding `CCOc1nc(C)nc(N2CCN(c3ccc(F)cc3)CC2)c1[N+](=O)[O-]`, the melting point was in the range of 116 to 119 °C.
For `COc1ccc(-c2[nH]cnc2-c2cc(OC)c(O)c(OC)c2)cc1N` the value was 148 to 150 °C.
In the case of `Cc1ccc(Cl)cc1S(N)(=O)=O`, the melting point was in the range of 142 to 145 °C.
In the case of `COc1nc2ccccc2nc1NC(=S)N1CCN(c2cc(C)cc(C)c2)CC1`, the melting point was 193 to 195 °C.
As for `CCCCCCC(C(=O)O)n1cnc(NC(=O)C2(O)c3ccccc3-c3ccccc32)c1` (stereo unspecified), the melting point is 128 °C.
Consider `CC(Nc1ccccc1O)=C1C(=O)OC(=O)C(C(=O)C=Cc2ccc(O)cc2)=C1O`, for which the melting point is 257 to 260 °C.
Turning to `CC12CCC(C(=O)Nc3ccccc3C(c3ccc(O)cc3)c3ccc(O)cc3)(OC1=O)C2(C)C` (stereo unspecified), the melting point was in the range of 229 to 231 °C.
For `Cc1ccc(Cl)cc1N1C(=O)CN(C(C)C)C1=S` the value was 142 to 144 °C; for `C=CCNc1nc(N)nc(-c2ccccc2)c1-c1ccc(=O)n(C(C)C)n1`, 192 °C.
For `CCOC(=O)c1sc(NC(=O)c2ccc(C#N)cc2)nc1C`, the melting point fell in the range of 293 to 295 °C.
Consider `CC(C)c1ccc(-c2nnc(-c3cccc(C(=O)O)c3)o2)cc1`, for which the melting point is 202 to 204 °C.
For `Nc1ncc(Cc2ccc3c(c2)CCCN3)c(N)n1` the value was 284 to 287 °C.
As for `CC1CCc2ccc(NC(=O)C(F)(F)F)c3c(=O)c(C(=O)O)cn1c23` (stereo unspecified), the figure is 301 to 303 °C; as for `COC(=O)c1c(-c2cc(C)c(O)c(C)c2)c(C)n2c1-c1cc(OC)c(OC)cc1CC2C` (racemic), 177 to 179 °C.
With `C=CCc1c(OC)cc(Cc2cnc(N)nc2N)cc1OC`, the melting point lay in the range of 185 to 187 °C.
As for `O=C(NC1CN2CCC1CC2)c1ccccc1Cc1ccccc1` (racemic), the figure is 187 to 188 °C.
As for `CN(C)C=Nc1ccc(I)cc1C#N`, the figure is 53 to 55 °C.
For `CCCCc1cn(CCCC)c(=O)n1Cc1ccc(-c2cccnc2-c2nnn[nH]2)cc1` the value was 178 to 180 °C; for `Cc1ccc2c(c1F)N(C1CC1)CNS2(=O)=O`, 135 to 138 °C.
`O=C(CC(=O)C(F)(F)F)Nc1cc(-c2cccs2)n[nH]1` showed a melting point of 259 to 261 °C.
For `CC(=O)NC(NC(=O)c1cc(C)cc(C)c1)C(N)=O` (stereo unspecified) the value was 244 to 245 °C.
Molecule `COc1cc2ncc(NC3CCCCC3)nc2cc1OC` gave a melting point of 149 to 151 °C.
With `O=C(Nc1ccc(OCCNCC2CC2)cc1)c1c[nH]c2c1C(=O)CCC2`, the melting point was 234 °C.
`CS(=O)(=O)Nc1ccc(N2CCN(c3cc([N+](=O)[O-])ccn3)CC2)cc1` came in with a melting point of 182 to 183 °C.
As for `COCCNC(=O)c1cccc(-c2ccc3c(c2)N(c2cccc(Cl)c2Cl)CC3)c1`, the figure is 99 to 100 °C; as for `CCCCN1CCCC1=NC(=O)Nc1cccc(Cl)c1`, 94 to 96 °C; as for `CCCCCNC(=O)N(CCCc1ccncc1)CCC12CC3CC(CC(C3)C1)C2`, 47 to 50 °C.
As for `CCCNc1ncnc2c1ncn2CCCN1CCN(c2ccccc2)CC1`, the figure is 67 to 68 °C.
As for `CC(CCN1C(=O)c2ccccc2C1=O)=NO`, the figure is 151 to 172 °C.
In turn, `O=C1CCC2=C(CCc3cc(F)ccc32)N1` gave a melting point of 223 to 224 °C.
For `CC1Cc2cccc(S(N)(=O)=O)c2S1(=O)=O` (stereo unspecified) the value was 167 to 169 °C.
For `NC(=O)CCCCCc1cccc2cncn12` the value was 131 to 132 °C; for `CC(C)Oc1ccc(-n2c(CC(=O)O)c(C(=O)O)c3cc(Oc4ncccc4C(=O)O)ccc32)cc1`, 212 to 214 °C; for `CCCCCCCCCCCCCCCCCCNC(=O)OCC(CN)NC(=O)OC` (stereo unspecified), 128 to 129 °C.
For `Cc1nnc(SCC2=C(C(=O)O)N3C(=O)C(NC(=O)CC4=CSCCS4)C3SC2)s1` (stereo unspecified) the value was 170 °C; for `CCCCCCCCCCCC#Cc1ccccc1C=C(C(=O)OCC)P(=O)(O)O`, 68 to 69 °C.
For the molecule `COc1cc(OC)c(OC)c(OC)c1OC`, the melting point fell in the range of 59 to 61 °C.
The molecule `CN(C)C(=O)C=Cc1ccc(C=CC(=O)N(C)C)cc1` registered a melting point of 247 °C.
The molecule `CC(CO)(CO)C(=O)OCc1ccccc1` had a melting point of 71.6 to 72.8 °C.
For `C=CC(=O)N1C(C)(C)CC(=C2CC(C)(C)N(C(=O)C=C)C(C)(C)C2)CC1(C)C` the value was 196 to 198 °C; for `CC(C)c1ccccc1NC(=N)Nc1cccc2ccccc12`, 175 to 177 °C; for `O=c1nc(Nc2ccc(C(F)(F)F)cc2)sc2ncccc12`, 280 to 283 °C.
For `CC(C)(CF)C(=O)Cn1cncn1` the value was 59 °C.
As for `CNc1nc(N(C2CC(C)(C)N(O)C(C)(C)C2)C2CC(C)(C)N(O)C(C)(C)C2)nc(N(C2CC(C)(C)N(O)C(C)(C)C2)C2CC(C)(C)N(O)C(C)(C)C2)n1`, the figure is 254 to 257 °C.
In the case of `CNC(=O)Oc1cc(C)c(NC(=O)COC)c(C)c1`, the melting point fell in the range of 180 to 182 °C.
As for `CCOC(=O)C(C(=O)O)=C1SCS1`, the figure is 166 to 167 °C; as for `CCNC(=NS(=O)(=O)c1cccc(C#N)c1)N1CC(CC)C=N1` (stereo unspecified), 164 to 168 °C.
As for `N#Cc1c(NC(=O)CO)cccc1N1CCOCC1`, the figure is 123 to 126 °C.
For `CCCOc1ccc2[nH]c3c([N+](=O)[O-])ccc(Cl)c3c(=O)c2c1` the value was 174 to 175 °C.
Turning to `CCOC(=O)C1Oc2cc(C=O)c(Cl)c(Cl)c2O1` (stereo unspecified), the melting point is 81 to 83 °C.
Take `COc1c(O)c(OC)c2c(=O)cc(-c3ccc(O)c(O)c3)oc2c1OC`: the melting point is 279 to 281 °C.
Regarding `COc1ccc(-c2nc3ccc(C(=O)O)cc3nc2-c2ccc(OC)cc2)cc1`, the melting point lay within 284 to 285 °C.
In turn, `CCN(CC)c1cccc2nc3n(c12)C=CCCN3c1ccc(Cl)cc1Cl` showed a melting point of 105 to 106 °C.
Turning to `Cc1ccc(C(C)(C)C)cc1P(=O)(O)c1cc(C(C)(C)C)ccc1C`, the melting point was 182 to 183 °C.
As for `CCCC(=O)NCCN1CCOc2ccc(OC)cc21`, the figure is 73 to 74 °C.
Take `O=C(O)COc1ccc2c(=O)c3c(F)cccc3oc2c1`: the melting point was 180 to 183 °C.
Turning to `C=CCC1(c2ccccc2)OC(C(=O)OC)Oc2ccc(Cl)cc21` (stereo unspecified), the melting point turned out to be 70 °C.
As for `COc1ccc(-c2nc(-c3ccc[nH]3)sc2-c2ccc(OC)cc2)cc1`, the figure is 132 to 134 °C; as for `Cc1ccc2c(c1)C=Cc1cc(C)ccc1C2c1cn(-c2ccnc(N(C)CC(=O)Nc3nc(CC(=O)O)cs3)n2)c(=O)[nH]c1=O`, 210 °C; as for `C=C(C1=C(CCC(=O)OC)C(=O)CC1O)c1ccccc1` (stereo unspecified), 80 °C.
In the case of `ClCc1cc2ccccc2nc1I`, the melting point was 138 to 140 °C.
Molecule `Cc1ccc(-c2ccc(S(=O)(=O)N3CCN(C(=O)C4CCN(c5ccncc5)CC4)CC3)cc2)cc1` showed a melting point of 213 to 217 °C.
The molecule `CCCCC1c2cc(NC(=O)CC(C)(C)C)c(C)c(C)c2OC1(C)C` (stereo unspecified) displayed a melting point of 129 to 130 °C.
`CC(C)c1c(Sc2cccc(Cl)c2)nc(COC(N)=O)n1C` registered a melting point of 145 to 146 °C.
`Nc1ccc(C=C2c3ccccc3CCc3ccccc32)cc1` came in with a melting point above 250 °C.
For `COc1cc(OCC(=O)O)c(C)cc1SCc1ccc(-c2cccc(C(F)(F)F)c2)cc1` the value was 138 to 139 °C; for `COCCN(CCOC)c1nc2cc(-c3ccc(Cl)cc3)nnc2c2ccccc12`, 123 to 125 °C.
As for `CCCCCc1ccc(-c2cnc(-c3ccc(C#N)cc3)nc2)cc1`, the figure is 126 °C.
In the case of `CC(C)(C)c1ccc(-c2ccc3c(c2)C=C(C(=O)O)CCS3(=O)=O)cc1`, the melting point is 289 to 291 °C.
As for `CN1c2ccc(S(=O)(=O)N3CCOCC3)cc2S(=O)(=O)NC1C1CCCCC1` (stereo unspecified), the figure is 207 to 210 °C; as for `O=C1CC(C(=O)O)Oc2ccccc21` (stereo unspecified), 170 to 171 °C; as for `CNC(C)C(=O)Nc1cccc2c1C(=O)c1c(NC(=O)C(C)NC)cccc1C2=O` (stereo unspecified), 233 to 234 °C.
As for `COc1cc(COc2nn(C)cc2C(N)=O)ccc1OCc1nc(-c2ccccc2)oc1C`, the figure is 168 to 169 °C; as for `CC(C=CO)c1ccc(-c2ccc(Cl)cc2)cc1` (stereo unspecified), 130 to 132 °C; as for `OCC(O)COc1ccc(-c2nc(-c3cccs3)c[nH]2)cc1` (stereo unspecified), 197 to 200 °C.
Consider `CNC(=S)Nc1ccc(NNC=O)cc1`, for which the melting point is 176 to 178 °C.
In the case of `Cc1ccc(S(=O)(=O)OCCOc2ccc(N)c(CS(=O)(=O)c3ccccc3)c2)cc1`, the melting point lay in the range of 144 to 146 °C.
For `Cc1c(-c2cc(Br)c(O)c(Br)c2)oc2ccc(OP(=O)(O)O)cc2c1=O` the value was 258 to 260 °C; for `CCOc1ccccc1OCC(O)CNC(C)=CC(=O)c1ccc(C)nc1` (single isomer, unassigned; (-)), 108 to 109 °C.
For `CCOC(=O)c1[nH]nc(C)c1[N+](=O)[O-]` the value was 81 to 86 °C; for `CN(c1ccc(O)cc1)c1nc2ccccc2[nH]1`, above 260 °C.
As for `FC(F)C(F)(F)Oc1cccc(Nc2nccc(-c3cncc4ccccc34)n2)c1`, the figure is 158 to 160 °C; as for `COC(=O)C1=C(C)NC(C)=C(C(=O)OCCCBr)C1c1cccc([N+](=O)[O-])c1` (stereo unspecified), 112 to 114 °C.
On to `COc1ccc2c(n1)c(CCNC(C)=O)c1n2CCCc2ccccc2-1`, for which the melting point was 73 to 74 °C.
In turn, `CS(=O)(=O)Nc1ccc(C(=O)NC(=O)N2CCC(Oc3ccc(Cl)cc3)CC2)cc1` returned a melting point of 79 °C.
For `Cc1cccc(C(=O)CCl)c1O` the value was 65 to 66 °C; for `CCCc1cn2cc(C(=O)OC)nc2s1`, 155 to 156 °C.
For `O=C1c2ccccc2C(=O)N1CC(=C(Br)Br)c1ccccc1` the value was 154 to 155 °C; for `CCCCn1nc(C(N)=O)cc1C`, 114 °C; for `CC(=O)c1c(C)[nH]c(C(C)CCC(C)c2[nH]c(C)c(C(C)=O)c2C)c1C` (stereo unspecified), 263 to 268 °C.
As for `CCOC(=O)c1[nH]c(SCC)nc1C(C)(C)O`, the figure is 82 to 85 °C.
